Laboratory results: patent US20220168310A1, “INHIBITION OF ADENOVIRUS WITH FILOCICLOVIR” (Microbiotix, Inc., priority 2019, published 2022)

Experiments:
adenovirus 6 (AdV6) [1] = test: Neutral red survival assay, AdV6-infected A549 cells; assay type: cell-based, human adenovirus; settings: FIG. 2, A549 cells, 6 days post-infection
Source text: The neutral red cell cytotoxicity assay was used to detect cell viability or drug cytotoxicity. The principle of this assay is based on the detection of viable cells via the uptake of the dye neutral red. Neutral red is a eurhodin dye that stains lysosomes in viable cells. Viable cells can take up neutral red via active transport and incorporate the dye into their lysosomes, but non-viable cells are unable not take up this chromophore. Consequently, after washing, viable cells can release the incorporated dye under acidified-extracted conditions. The amount of released dye can be quantified and used to determine the total number of viable cells or drug cytotoxicity. As such, cytotoxicity is expressed as a concentration-dependent reduction of the uptake of neutral red after exposure to the compound under investigation.
The neutral red survival assays were carried out in a 96-well format. Briefly, A549 adenocarcinomic human alveolar basal epithelial cells were plated at a concentration of 6×10^3 cells per well one day prior to infection. AdV6 infections were carried out at 5×10^3 PFU per well (an estimated 0.5 PFU/cell at the time of infection). […] Filociclovir plates were read and the results were graphed using GraphPad Prism graphing and statistical software (GraphPad Software, San Diego, Calif.).

adenovirus = test: Dose-dependent inhibition of adenovirus infection (summary statement); assay type: cell-based; settings: unidentified adenovirus
adenovirus 6 (AdV6) [2] = test: CPE reduction assay, adenovirus 6; assay type: cell-based, human adenovirus
Description: Similar experiments were carried out with filociclovir against adenovirus 6, adenovirus 7, and adenovirus 8.

adenovirus 19 (AdV19) = test: Efficacy against adenovirus 19 (data not shown)
[3] = Pharmacokinetics of filociclovir in immunosuppressed hamsters; assay type: in vivo, Syrian hamsters; settings: 6 hours after administration
Description: In order to test the pharmacokinetics of filociclovir, we use a Syrian male hamster model of adenovirus infection. Syrian hamsters were given either an oral (p.o. 50 mg/kg) or intravenous (i.v. 10 mg/kg) dose of filociclovir. […] For i.v. administration, filociclovir was dissolved in DMSO (Sigma D2650) and then diluted with water to a final concentration of 5 mg/ml for filociclovir and 75% DMSO. The dosing solutions were prepared one day before use and stored at 4° C. Male Syrian hamsters were purchased from Envigo (Hackensack, N.J.) at ˜100 g body weight. […] The animals received three injections of CP before the administration of filociclovir. Two groups of animals (12 hamsters/group) were used for the two routes of administrations. In addition, three untreated animals (the same three hamsters for both routes) served as mock controls. The p.o. and i.v. experiments were performed on two consecutive days. As the hamsters weighed approximately 100 g, (+/−10%), they were administered 1 ml and 0.2 ml for the p.o. and i.v. routes, respectively, to achieve the desired dose. For both routes, 3 hamsters were sacrificed at 0.5, 1, 3, and 6 hr post dosing. […]

adenovirus 3 (AdV3) = test: Efficacy against adenovirus 3 (data not shown)
Human AdV6 = test: High dose filociclovir against intravenously administered AdV6 in immunosuppressed hamsters (Example 5); settings: for mortality: p=0.0124 vs AdV6+Vehicle; for virus burden in the liver: TCID50
Description: Four dose levels were tested: 10, 30, 60, and 100 mg/kg p.o. q.d. The highest dose was determined based on rat toxicology data.
All hamsters were immunosuppressed using cyclophosphamide (CP). CP was administered intraperitoneally at a dose of 140 mg/kg, and then twice weekly at a dose of 100 mg/kg.
Filociclovir, in powdered form, was suspended in 0.4% carboxymethyl cellulose (Sigma C5678) at 1, 3, 6, and 10 mg/ml and sonicated to visual homogeneity and aliquots stored at 4° C. Aliquots were allowed to equilibrate to room temperature before dosing. Hamsters weighing approximately 100 g were dosed with a 1 ml volume of the appropriate suspension for the 10, 30, 60, and 100 mg/kg dose levels. References to “vehicle” refers to 0.4% carboxymethyl cellulose
The hamsters were divided into 8 groups, 15 hamsters/group, (with the exception of Group 2, which had only 5 hamsters; see Table 3), immunosuppressed, and then injected i.v. with vehicle (Groups 1-2) or 2×10^10 PFU/kg of AdV6 (Groups […]). Groups 1 and 3 received drug vehicle (p.o. q.d.), Group 4 received 10 mg/kg filociclovir (p.o. q.d.), Group 5 received 30 mg/kg filociclovir (p.o. q.d.), Group 6 received 60 mg/kg filociclovir (p.o. q.d.), Groups 2 and 7 received 100 mg/kg filociclovir (p.o. q.d.), and Group 8 received cidofovir (20 mg/kg, 3 times weekly). For all groups, drug administration started 1 day before challenge, and continued according to the schedule above for the duration of the study.
The body weights and any signs of morbidity of the animals were recorded daily. At 5 days post challenge, 5 hamsters (designated at the start of the experiment) from each group (with the exception of Group 2) were sacrificed, and gross pathological observation was performed. Serum and liver samples were collected and the virus burden in liver was determined by a TCID50 assay, and the serum was analyzed for transaminase levels. The remaining 10 hamsters were sacrificed at 14 days post challenge. Hamsters that became visually moribund before Day 14 were sacrificed as needed. In addition to the hamsters observed to be moribund, all hamsters that lost more than 20% of their original body weight were also sacrificed. For the hamsters sacrificed at the conclusion of the experiment and those sacrificed as moribund, serum and liver tissues were collected and banked for possible determination of serum transaminase levels and virus burden in the liver. Liver tissue was preserved in formalin for possible histopathological examination.

Nc1nc2c(ncn2/C=C2/CC2(CO)CO)c(=O)[nH]1 [FCV, 2-amino-9-{(Z)-[2,2-bis(hydroxymethyl)cyclopropylidene]methyl}-3,9-dihydro-6H-purin-6-one]
concentration as low as which is effective to improve viability of AdV6 infected cells (adenovirus 6 (AdV6) [1]): 10^−1 μM | IC50 (adenovirus): ≤ 5 µM | CC50/EC50 (adenovirus 6 (AdV6) [2]): 27 | EC50 (adenovirus 6 (AdV6) [2]; Human mastadenovirus C, unit not given in Table 2 (Table 1 in μM)): 3.67 µM | treat or prevent infection (adenovirus 19 (AdV19)): effective | detectability after administration ([3]; i.v. 10 mg/kg): still detectable | detectability after administration ([3]; p.o. 50 mg/kg): still detectable | treat or prevent infection (adenovirus 3 (AdV3)): effective | body weight loss (Human AdV6; 10 mg/kg p.o. q.d.): reversed | mortality (Human AdV6; 10 mg/kg p.o. q.d.): prevented mortality | virus burden in the liver (Human AdV6; 10 mg/kg, 5 days post challenge): one animal in the AdV6+10 mg/kg filociclovir group with a very low liver virus burden | body weight loss (Human AdV6; 30 mg/kg p.o. q.d.): reversed | mortality (Human AdV6; 30 mg/kg p.o. q.d.): prevented mortality | virus burden in the liver (Human AdV6; 30 mg/kg, 5 days post challenge): nondetectable level | toxicity for AdV6-infected hamsters (Human AdV6; 60 mg/kg p.o. q.d.): toxic | toxicity for AdV6-infected hamsters (Human AdV6; 100 mg/kg p.o. q.d.): toxic | animals with elevated serum transaminase levels (ALT) (Human AdV6; 5 days post challenge, filociclovir p.o. q.d. groups, CDV 20 mg/kg 3 times weekly): none | kidney pathology at day 5 sacrifice (Human AdV6; AdV6+60 mg/kg): extensive kidney pathology | kidney pathology at day 5 sacrifice (Human AdV6; AdV6+100 mg/kg): extensive kidney pathology
